Experimental data taken from article PMC9221546, “New Phenylglycinamide Derivatives with Hybrid Structure as Candidates for New Broad-Spectrum Anticonvulsants” (Cells, 2022).
Like-named read-outs stand apart in the source and are kept apart here.

What was measured:
[1] = test system: scPTZ-induced seizures in mice; test: Subcutaneous pentylenetetrazole (scPTZ) seizure test; format: in vivo; conditions: 100 mg/kg i.p., 0.5 h
Method: (§1) Adult male Albino Swiss mice that weighed between 22 and 26 g were used in the in vivo studies. They were housed under standardized housing conditions in colony cages and had free access to food as well as tap water. The animals were left to adapt under laboratory conditions for 7 days. All procedures involving animals and their care were performed in accordance with the current European Community and Polish legislation on animal experimentation.
(§2) In the initial screening studies, four mice per group were randomly assigned to each experimental group (each mouse was used only once). To evaluate the ED50 or TD50 values, 3–4 groups that consisted of eight animals were injected with various doses of tested compounds. The protective indexes (PIs) for the compounds that were investigated and reference ASDs were calculated by dividing the TD50 value, as determined in the chimney test (or rotarod test), by the respective ED50 value, as determined in the MES, scPTZ, or 6 Hz (32 mA or 44 mA) tests (PI = TD50/ED50). The PIs is a measure of the potential therapeutic window of the tested agent.
(§3) All substances were suspended in Tween 80 (1% aqueous solution) and administered i.p. as a single injection at a dose of 10 mL/kg. On each day of experimentation, fresh solutions were prepared. The results are summarized in Table S1 (screening data) and Table 2 (ED50, TD50, and PI values, see Section 3 Results and Discussion).
(§4) The detailed in vivo procedures are described elsewhere: the maximal electroshock seizure test (MES), the subcutaneous pentylenetetrazole seizure test (scPTZ), the 6 Hz psychomotor seizure model (32 mA and 44 mA), and the chimney test.
(§5) The basic animal seizure models such as the MES, 6 Hz (32 mA or 44 mA), and the scPTZ are still a standard in the discovery and development of new ASDs. In vivo screening approaches enable the identification of compounds with unidentified and potentially novel mechanisms of action besides substances with well-established pharmacodynamics. Bearing in mind the aforementioned facts, compounds 45–66 were initially studied in the MES test and in the 6 Hz seizure model (32 mA) after intraperitoneal (i.p.) administration at a screening dose of 100 mg/kg in mice at a time point of 0.5 h (the screening group consisted of four mice, the results obtained are summarized in Table S1). It should be stressed that the MES test is an experimental model of human tonic–clonic epilepsy as well as partial convulsions with or without secondary generalization, the 6 Hz model (32 mA) corresponds to human focal epilepsy, whereas the scPTZ test relates to human generalized absence or myoclonic seizures.

TRPV1 (VR1) (h) = molecular target: T1, TRPV1 (VR1) (h) (Homo sapiens, UniProt Q8NER1); test: TRPV1 (VR1) (h) antagonist effect functional assay; format: cell-based; conditions: human recombinant CHO cells, read-out: % Inhibition of control agonist response, TRPV1 (antagonist effect)
T1 construct: host or cells: CHO
T1 sequence (Q8NER1 whole entry): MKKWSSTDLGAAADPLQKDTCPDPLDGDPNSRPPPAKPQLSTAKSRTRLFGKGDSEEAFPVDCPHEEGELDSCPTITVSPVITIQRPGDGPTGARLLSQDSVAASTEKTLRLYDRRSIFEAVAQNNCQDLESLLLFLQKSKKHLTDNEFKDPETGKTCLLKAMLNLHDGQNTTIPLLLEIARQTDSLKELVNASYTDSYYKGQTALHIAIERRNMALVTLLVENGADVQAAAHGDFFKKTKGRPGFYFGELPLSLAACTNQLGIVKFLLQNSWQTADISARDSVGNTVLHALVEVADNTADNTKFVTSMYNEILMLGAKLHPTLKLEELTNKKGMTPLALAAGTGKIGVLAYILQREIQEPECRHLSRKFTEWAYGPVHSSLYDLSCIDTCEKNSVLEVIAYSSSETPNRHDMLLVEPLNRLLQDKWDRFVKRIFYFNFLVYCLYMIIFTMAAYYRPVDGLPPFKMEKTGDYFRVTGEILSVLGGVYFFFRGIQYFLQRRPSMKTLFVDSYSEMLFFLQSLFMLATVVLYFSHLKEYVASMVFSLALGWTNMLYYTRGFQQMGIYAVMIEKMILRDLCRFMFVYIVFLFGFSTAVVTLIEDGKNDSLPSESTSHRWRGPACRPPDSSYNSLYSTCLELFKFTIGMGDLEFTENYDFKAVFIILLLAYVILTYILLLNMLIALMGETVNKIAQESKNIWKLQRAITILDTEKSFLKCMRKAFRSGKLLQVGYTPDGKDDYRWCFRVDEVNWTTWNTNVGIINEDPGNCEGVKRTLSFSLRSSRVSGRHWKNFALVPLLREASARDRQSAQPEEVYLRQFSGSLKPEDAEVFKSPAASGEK
Method: Binding/functional studies were carried out commercially in Eurofins Laboratories (Poitiers, France) and Eurofins Panlabs Discovery Services Taiwan, Ltd. (New Taipei City, Taiwan) using testing procedures that were reported previously (for details see Table S2).
Table S2. Radioligand binding and functional assays. […]
Assays were performed commercially in Eurofins Laboratories (Poitiers, France) or Eurofins Panlabs Discovery Services Taiwan, Ltd. (New Taipei City, Taiwan).
Table S3. In vitro TRPV1 channel antagonist activity for compounds 45–66 (concentration of 100 µM). […]
Cmpd % Inhibition of control Cmpd % Inhibition of control agonist responsea agonist responsea
*Source: human recombinant CHO cells. a Results showing activity higher than 50% are considered to represent […]
variability of the sign al around the control level. Assays were performed commercially in Eurofins Laboratories

[2] = Chimney test (acute neurological deficit); conditions: mouse, in vivo, ip, mice
Method: as §2, §3, §4
We also established the median toxic doses (TD50) in the chimney test 0.5 h post i.p. administration of these compounds. […]

[3] = test system: MES-induced seizures in mice; test: Maximal electroshock seizure (MES) test; format: in vivo
Method: as §1, §2, §3, §4, §5
(§6) We also established the median toxic doses (TD50) in the chimney test 0.5 h post i.p. administration of these compounds. Both the aforementioned parameters enabled the calculation of the protective indexes (PIs).

[4] = test system: 6 Hz (32 mA) seizures in mice; test: 6 Hz (32 mA) psychomotor seizure model; format: in vivo; conditions: Mus musculus, ip; for responders at 100 mg/kg: 100 mg/kg i.p., 0.5 h
Method: as §1, §2, §3, §4, §5, §6

[5] = PAMPA permeability (Pre-coated PAMPA Plate System Gentest); format: in vitro ADME
Text: Caffeine (CFN) and norfloxacin (NFX) were used as the high- and low-permeable references, respectively.

Structure (SMILES) | scPTZ screening: number of mice protected/number of mice tested [1] | inhibition at 100 µM (TRPV1 (VR1) (h)) | TD50 at 0.5 h [2] | protection in MES screening ([3]; 100 mg/kg i.p., 0.5 h, four mice) | responders at 100 mg/kg ([3]; Mus musculus, ip, 100 mg/kg i.p., 0.5 h, read-out: MES screening: number of mice protected/number of mice tested (converted)) | ED50 ([3]; Mus musculus, ip, mice, pretreatment time 0.5 h, (95% confidence limits)) | responders at 100 mg/kg ([4]; four mice, read-out: protection in 6 Hz (32 mA) screening) | responders at 100 mg/kg ([4]; read-out: 6 Hz (32 mA) screening: number of mice protected/number of mice tested (converted)) | ED50 ([4]; mice, pretreatment time 0.5 h, (95% confidence limits)) | Pe (permeability coefficient) ± SD [5]
CC(=O)NC(C(=O)N1CCN(c2ccccc2)CC1)c1ccccc1 (stereo not shown) [Compound 45, N-(2-oxo-1-phenyl-2-(4-phenylpiperazin-1-yl)ethyl)acetamide] | 0/4 | 36.1% | 268 mg/kg | 75% | 75% | 125 mg/kg | 75% | 75% | 81.6 mg/kg | 
Cn1c(=O)c2c(ncn2C)n(C)c1=O [CFN, Caffeine, reference compound] |  |  |  |  |  |  |  |  |  | 12.22 ± 0.94 10^−6 cm/s
